According to patent publication US11622965B2, “Methods for treating lymphoid malignancies” (ZHEJIANG DTRM BIOPHARMA CO. LTD., priority 2017, dated 2023):

Key:
[1] = tested on: relapsed/refractory B-cell lymphomas; experiment: China Phase I trial of Compound A monotherapy: efficacy; assay type: in vivo, human
Protocol: The pharmacokinetics of Compound A was also evaluated.
Patients who met the following inclusion criteria were enrolled in the trials in China: i) age≥18 years, no gender limits, and provide the informed consent form; ii) B-cell lymphoma classification is based on WHO classified definition, including CLL, small lymphocytic lymphoma (SLL); CLL with 17p-; MCL; WM; DLBCL, etc.; iii) measurable lesion: NHL requires at least one≥2 cm two-dimensional lesion diameter, CLL≥5000 leukemia cells/mm^3, WM IgM≥1000 mg/dL, bone marrow lymph plasma-like cells infiltration, histopathologically diagnosed as DLBCL; iv) patients failed in lymphoma treatment at least once and have no standard therapeutic options; DLBCL patients who are not suitable for or reject autologous stem cell transplantation; and v) ECOG (Eastern Cooperative Oncology Group) performance status 0˜1. Meanwhile, patients who met any one of the following criteria were excluded: i) disease with changes of pathological tissue types (including large cell transformation); ii) patients received other BTK inhibitor therapy (China only); and iii) patients with HIV infection, or HBs-Ag or HBc-Ab positive.
No intrapatient dose escalation of Compound A was permitted.

[2] = molecular target: FGFR1 (Homo sapiens, UniProt P11362); experiment: 46 kinase panel; assay type: biochemical
Chain of FGFR1 (P11362 22-822, species assumed): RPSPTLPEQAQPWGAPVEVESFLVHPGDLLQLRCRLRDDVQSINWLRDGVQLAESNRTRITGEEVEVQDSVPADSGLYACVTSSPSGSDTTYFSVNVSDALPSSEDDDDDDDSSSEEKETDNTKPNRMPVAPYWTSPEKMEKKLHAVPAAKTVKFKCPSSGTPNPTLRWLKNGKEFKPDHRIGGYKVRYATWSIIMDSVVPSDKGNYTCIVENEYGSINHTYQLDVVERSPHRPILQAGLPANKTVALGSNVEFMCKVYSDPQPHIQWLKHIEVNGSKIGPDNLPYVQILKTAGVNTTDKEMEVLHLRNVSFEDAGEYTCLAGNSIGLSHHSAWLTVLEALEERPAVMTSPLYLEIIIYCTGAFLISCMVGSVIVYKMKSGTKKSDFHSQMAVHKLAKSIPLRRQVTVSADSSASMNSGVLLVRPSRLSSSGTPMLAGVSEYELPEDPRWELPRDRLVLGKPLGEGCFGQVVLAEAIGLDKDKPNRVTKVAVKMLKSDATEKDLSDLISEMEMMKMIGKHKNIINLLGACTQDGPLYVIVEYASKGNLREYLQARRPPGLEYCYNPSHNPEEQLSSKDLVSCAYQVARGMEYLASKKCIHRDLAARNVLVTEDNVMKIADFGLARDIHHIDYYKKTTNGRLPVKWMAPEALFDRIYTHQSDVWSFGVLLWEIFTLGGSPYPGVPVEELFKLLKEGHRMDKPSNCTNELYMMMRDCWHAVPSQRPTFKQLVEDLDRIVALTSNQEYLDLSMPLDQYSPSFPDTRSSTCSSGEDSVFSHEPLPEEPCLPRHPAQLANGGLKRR
Description: (§1) Both patents are incorporated by reference herein in their entirety.

[3] = molecular target: T1, JAK3 (Homo sapiens, UniProt P52333); experiment: 46 kinase panel; assay type: biochemical
T1 sequence (P52333 1-1124): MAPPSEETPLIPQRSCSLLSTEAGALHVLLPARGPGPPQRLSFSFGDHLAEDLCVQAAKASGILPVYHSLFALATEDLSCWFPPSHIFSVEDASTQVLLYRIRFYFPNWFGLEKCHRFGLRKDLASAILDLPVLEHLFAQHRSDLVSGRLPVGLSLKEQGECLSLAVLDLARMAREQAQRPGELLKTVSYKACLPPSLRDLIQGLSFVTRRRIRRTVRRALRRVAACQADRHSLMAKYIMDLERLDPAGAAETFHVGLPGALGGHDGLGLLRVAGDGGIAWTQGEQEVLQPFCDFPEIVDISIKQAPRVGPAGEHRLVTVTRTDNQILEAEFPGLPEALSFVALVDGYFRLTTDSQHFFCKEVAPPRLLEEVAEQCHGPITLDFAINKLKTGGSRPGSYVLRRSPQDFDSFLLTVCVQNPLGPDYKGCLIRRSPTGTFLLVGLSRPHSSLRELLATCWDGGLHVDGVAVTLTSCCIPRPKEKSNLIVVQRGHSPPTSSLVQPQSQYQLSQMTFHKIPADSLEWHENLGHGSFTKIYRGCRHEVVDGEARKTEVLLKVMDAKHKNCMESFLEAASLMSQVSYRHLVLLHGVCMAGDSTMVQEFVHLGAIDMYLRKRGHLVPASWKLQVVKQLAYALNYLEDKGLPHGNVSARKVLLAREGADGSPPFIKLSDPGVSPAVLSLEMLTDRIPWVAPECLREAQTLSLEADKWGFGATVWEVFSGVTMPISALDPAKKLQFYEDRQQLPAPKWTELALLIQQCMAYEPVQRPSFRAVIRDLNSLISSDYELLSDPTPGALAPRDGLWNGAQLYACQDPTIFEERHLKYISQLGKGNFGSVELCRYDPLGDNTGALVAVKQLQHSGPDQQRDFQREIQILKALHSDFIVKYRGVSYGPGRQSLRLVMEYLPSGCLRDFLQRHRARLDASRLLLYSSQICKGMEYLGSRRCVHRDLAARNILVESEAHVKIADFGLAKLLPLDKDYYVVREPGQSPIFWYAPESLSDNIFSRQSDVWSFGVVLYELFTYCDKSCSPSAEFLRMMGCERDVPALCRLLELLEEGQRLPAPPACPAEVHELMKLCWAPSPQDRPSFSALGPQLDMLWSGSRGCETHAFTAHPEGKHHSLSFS
Description: as §1

Question: For C=CC(=O)N1CC[C@@H](n2nc(-c3ccc(Oc4c(F)c(F)cc(F)c4F)cc3F)c3c(N)ncnc32)C1 [Compound A, 1-((R)-3-(4-amino-3-(2-fluoro-4-(2,3,5,6-tetrafluorophenoxy)phenyl)-1H-pyrazolo[3,4-d]pyrimidin-1-yl)pyrrolidin-1-yl)prop-2-en-1-one], which response ([1]; FL patients (N=2)) is on record?
Answer: Its response is 1PR, 1SD.

Question: And the “progressive disease after treatment” value ([1]; FL patients, first cycle)?
Answer: The value was “three FL patients experienced progressive disease”.

Question: And the response ([1]; MZL patients (N=2))?
Answer: The response was 1CR, 1SD.

Question: And the response ([1]; WM patients (N=2))?
Answer: Its response is 2PR.

Question: What about the “inhibition of FGFR1” value [2] of the same compound?
Answer: Its value is “partial inhibition”.

Question: What about the “inhibition of JAK3” value [3] of the same compound?
Answer: Its value is “partial inhibition”.
